What was measured:
Format in all cases: in vivo
Chenopodium album [1] = assay: Test Example 3: herbicidal effect test by treatment of dry field farming soil (one day after seeding); conditions: 120 g/10a active ingredient, evaluated 14 days after treatment
Procedure, shortened: (§1)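 Herbicidal rate (%) equals 1 minus treated/untreated mean plant dry weight, times 100, taken 14 days after treatment in duplicate pots. Emulsion diluted in water was applied at 100 L per 10 ares (120 g a.i. per 10 ares) one day after sowing 20 seeds per species into the top 1 cm of alluvial soil.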

Amaranthus viridis [2] = assay: as above; conditions: 120 g/10a active ingredient, evaluated 14 days after treatment
Procedure, shortened: as §1

Echinochloa crus-galli [3] = assay: as above; conditions: 120 g/10a active ingredient, evaluated 14 days after treatment
Procedure, shortened: as §1

southern crabgrass [4] = assay: as above; conditions: 120 g/10a active ingredient, evaluated 14 days after treatment
Procedure, shortened: as §1

[5] = tested on: broad leaf weeds (Lindernia pyxidaria and Monochoria vaginalis); assay: Test Example 1: herbicidal effect test by treatment of rice paddy soil (immediately after seeding); conditions: 120 g/10a active ingredient, dry weight vs untreated area, 14 days after treatment
Procedure, shortened: (§2)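 Flooded paddy pot test in a glass greenhouse: emulsion diluted in water, dropped at 120 g a.i. per 10 ares just after sowing, water depth kept about 3 cm. Dry-weight reduction relative to untreated plants is scored at 14 days.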

Scirpus juncoides [6] = assay: as above; conditions: 120 g/10a active ingredient, dry weight vs untreated area, 14 days after treatment
Procedure, shortened: as §2

Echinochloa crus-galli [7] = assay: as above; conditions: 120 g/10a active ingredient, dry weight vs untreated area, 14 days after treatment
Procedure, shortened: as §2

[8] = tested on: broad leaf weeds (Lindernia pyxidaria and Monochoria vaginalis); assay: Test Example 2: herbicidal effect test by treatment during growing period in paddy rice cultivation (seven days after seeding); conditions: 120 g/10a active ingredient, assessed 14 days after treatment, dry weight vs untreated area
Procedure, shortened: (§3)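 Herbicidal rate (%) = {1 − treated/untreated mean plant dry weight} × 100, assessed in duplicate 14 days post-treatment. Emulsion formulations were diluted in water and dropped onto flooded (about 3 cm) paddy pots 7 days after seeding, giving 120 g a.i. per 10 ares. Plants were grown in a glass greenhouse.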

Scirpus juncoides [9] = assay: as above; conditions: 120 g/10a active ingredient, assessed 14 days after treatment, dry weight vs untreated area
Procedure, shortened: as §3

Echinochloa crus-galli [10] = assay: as above; conditions: 120 g/10a active ingredient, assessed 14 days after treatment, dry weight vs untreated area
Procedure, shortened: as §3

Chenopodium album [11] = assay: Test Example 4: herbicidal effect test by treatment of leave and stem in dry field farming (seven days after seeding); conditions: 120 g/10a active ingredient; emulsion sprayed seven days after seeding; evaluated 14 days after treatment
Procedure, shortened: (§4)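 Weeds were seeded at 20 seeds per species into the top 1 cm of alluvial upland soil in pots, then sprayed 7 days after seeding with water-diluted emulsifiable concentrate at 100 L/10 a, giving 120 g active ingredient/10 a. Duplicate pots; herbicidal rate (%) was 14 days post-treatment, from dry weight versus untreated.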

Amaranthus viridis [12] = assay: as above; conditions: 120 g/10a active ingredient; emulsion sprayed seven days after seeding; evaluated 14 days after treatment
Procedure, shortened: as §4

Echinochloa crus-galli [13] = assay: as above; conditions: 120 g/10a active ingredient; emulsion sprayed seven days after seeding; evaluated 14 days after treatment
Procedure, shortened: as §4

southern crabgrass [14] = assay: as above; conditions: 120 g/10a active ingredient; emulsion sprayed seven days after seeding; evaluated 14 days after treatment
Procedure, shortened: as §4

SMILES	herbicidal rate, Chenopodium album (Chenopodium album [1]) [%]	herbicidal rate, Amaranthus viridis (Amaranthus viridis [2]) [%]	herbicidal rate, Echinochloa crus-galli (Echinochloa crus-galli [3]) [%]	herbicidal rate, southern crabgrass (southern crabgrass [4]) [%]	Herbicidal rate (%) Lindernia pyxidaria [5] [%]	Herbicidal rate (%) Monochoria vaginalis [5] [%]	Herbicidal rate (%) Scirpus juncoides (Scirpus juncoides [6]) [%]	Herbicidal rate (%) Echinochloa crus-galli (Echinochloa crus-galli [7]) [%]	Herbicidal rate (%) Lindernia pyxidaria [8] [%]	Herbicidal rate (%) Monochoria vaginalis [8] [%]	Herbicidal rate (%) Scirpus juncoides (Scirpus juncoides [9]) [%]	Herbicidal rate (%) Echinochloa crus-galli (Echinochloa crus-galli [10]) [%]	herbicidal effect (herbicidal rate), Chenopodium album (Chenopodium album [11]) [%]	herbicidal effect (herbicidal rate), Amaranthus viridis (Amaranthus viridis [12]) [%]	herbicidal effect (herbicidal rate), Echinochloa crus-galli (Echinochloa crus-galli [13]) [%]	herbicidal effect (herbicidal rate), southern crabgrass (southern crabgrass [14]) [%]
Cc1c(Cc2ccccc2N(C(=O)C2CC2)S(=O)(=O)C(F)(F)F)c(=O)on1C(C)(C)C [Compound 1-403]	90	90	90	90	90	90	90	90	90	90	90	90	40	40	90	90
CCC(=O)N(c1ccccc1Cc1c(C)n(CC(C)(C)C)oc1=O)S(=O)(=O)C(F)(F)F [Compound 1-318]	90	90	90	90	90	90	90	90	90	90	90	90	40	40	90	90
CCC(C)n1oc(=O)c(Cc2ccccc2N(C(=O)OCC(C)C)S(=O)(=O)C(F)(F)F)c1C (centres unmarked) [Compound 1-669]	90	90	90	90	90	90	90	90	90	90	90	90	40	40	90	90
COCC(C)n1oc(=O)c(Cc2ccccc2N(C(=O)CC(C)C)S(=O)(=O)C(F)(F)F)c1C (centres unmarked) [Compound 1-357]	90	90	90	90	90	90	90	90	90	90	90	90	40	40	90	90
Cc1c(Cc2ccccc2N(C(=O)Oc2ccccc2)S(=O)(=O)C(F)(F)F)c(=O)on1C(C)(C)C [Compound 1-762]	90	90	90	90	90	90	90	90	90	90	90	90	40	40	90	90
C=CCOC(=O)N(c1ccccc1Cc1c(C)n(C(C)c2ccccc2)oc1=O)S(=O)(=O)C(F)(F)F (centres unmarked) [Compound 1-710]	90	90	90	90	90	90	90	90	90	90	90	90	40	40	90	90
Cc1c(Cc2ccccc2N(S(=O)(=O)C(F)(F)F)S(=O)(=O)C(F)(F)F)c(=O)on1Cc1ccc(F)cc1 [Compound 1-1014]	40	40	90	70	90	100	90	90	80	80	90	90	50	40	70	40
CCC(C)n1oc(=O)c(Cc2ccccc2N(C(=O)c2ccc(C)cc2)S(=O)(=O)C(F)(F)F)c1C (centres unmarked) [Compound 1-494]	90	90	90	90	90	90	90	90	90	90	90	90	40	40	90	90
